Experiments:
[1] = 298.15 K; 101.33 kPa; Liquid
[2] = xn = mol fraction of the nth substance listed; conditions: 298.15 K, 101.33 kPa, Liquid

CNC=O [N-methylformamide]
[1]
Conditions	mass density [kg/m3]	viscosity [mPa·s]
–	998.8	1.681

CNC=O [N-methylformamide] + CN(C)C=O
[2]
Conditions	mass density [kg/m3]	viscosity [mPa·s]
x2 = 0.0497	995.4	1.618
x2 = 0.0997	991.9	1.524
x2 = 0.2002	985.5	1.373
x2 = 0.2999	979.4	1.274
x2 = 0.4001	973.6	1.171
x2 = 0.4999	968.1	1.085
x2 = 0.5999	963	1.006
x2 = 0.699	958	0.947
x2 = 0.8001	953.2	0.897
x2 = 0.9001	948.6	0.855
x2 = 0.95	946.4	0.84

CNC=O [N-methylformamide] + O
[2]
Conditions	mass density [kg/m3]	viscosity [mPa·s]
x1 = 0.0504	1003.2	1.174
x1 = 0.1001	1008.9	1.422
x1 = 0.2	1014.6	1.793
x1 = 0.2998	1016.3	2.001
x1 = 0.4002	1015.1	2.067
x1 = 0.4996	1012.2	2.04
x1 = 0.5996	1009.4	1.961
x1 = 0.6994	1006.1	1.878
x1 = 0.7999	1003.7	1.794
x1 = 0.8983	1000.9	1.734
x1 = 0.9498	999.7	1.707

CN(C)C=O [dimethylformamide]
[1]
Conditions	mass density [kg/m3]	viscosity [mPa·s]
–	944.2	0.799

CN(C)C=O [dimethylformamide] + O
[2]
Conditions	mass density [kg/m3]	viscosity [mPa·s]
x1 = 0.05	996	1.31
x1 = 0.1001	996.8	1.728
x1 = 0.2	995.1	2.346
x1 = 0.299	991.6	2.491
x1 = 0.3998	984.4	2.273
x1 = 0.4997	975.9	1.878
x1 = 0.5993	968.4	1.532
x1 = 0.6995	960.7	1.243
x1 = 0.8	954.9	1.045
x1 = 0.8991	949.1	0.901
x1 = 0.9488	946.9	0.843

Source: the NIST ThermoML archive (doi:10.1021/je050209y)
